Results from patent US5332733A, “Heterocyclically substituted piperazinoakylbenzoxazine and piperazinoalkylbenzothiazine compounds, processes for preparing them, and medicaments containing them” (Kali-Chemie Pharma GmbH, priority 1990, dated 1994).

What was measured:
[1] = test system: mice; settings: mouse, in vivo, 1440 min
Experimental: 2. Determination of Minimum Toxic Dose
Maximum doses of 300 mg/kg of the test substance were administered orally to male mice weighing 20-25 g. The animals were observed carefully for 3 hours for toxicity symptoms. In addition, all symptoms and deaths were recorded over a period of 24 hours after administration. Associated symptoms were also observed and recorded. If death or severe toxic symptoms were observed, additional mice were administered increasingly lower doses. The lowest dose which produced death or severe toxic symptoms is given in the following Table B as the minimum toxic dose.

[2] = biological target: T1, 5-lipoxygenase (Mus musculus, UniProt P48999); test: In vitro 5-lipoxygenase inhibition, release of LTC4 from zymosan-stimulated peritoneal macrophages; format: cell-based; settings: zymosan-stimulated mouse peritoneal macrophage cells, 10^-5 mole/l
T1 construct: A cell suspension containing peritoneal cells from male mice 8-10 weeks old was obtained in a known manner; endogenous in cells; host or cells: mouse peritoneal macrophages (primary, adherent)
T1 sequence (P48999 1-674): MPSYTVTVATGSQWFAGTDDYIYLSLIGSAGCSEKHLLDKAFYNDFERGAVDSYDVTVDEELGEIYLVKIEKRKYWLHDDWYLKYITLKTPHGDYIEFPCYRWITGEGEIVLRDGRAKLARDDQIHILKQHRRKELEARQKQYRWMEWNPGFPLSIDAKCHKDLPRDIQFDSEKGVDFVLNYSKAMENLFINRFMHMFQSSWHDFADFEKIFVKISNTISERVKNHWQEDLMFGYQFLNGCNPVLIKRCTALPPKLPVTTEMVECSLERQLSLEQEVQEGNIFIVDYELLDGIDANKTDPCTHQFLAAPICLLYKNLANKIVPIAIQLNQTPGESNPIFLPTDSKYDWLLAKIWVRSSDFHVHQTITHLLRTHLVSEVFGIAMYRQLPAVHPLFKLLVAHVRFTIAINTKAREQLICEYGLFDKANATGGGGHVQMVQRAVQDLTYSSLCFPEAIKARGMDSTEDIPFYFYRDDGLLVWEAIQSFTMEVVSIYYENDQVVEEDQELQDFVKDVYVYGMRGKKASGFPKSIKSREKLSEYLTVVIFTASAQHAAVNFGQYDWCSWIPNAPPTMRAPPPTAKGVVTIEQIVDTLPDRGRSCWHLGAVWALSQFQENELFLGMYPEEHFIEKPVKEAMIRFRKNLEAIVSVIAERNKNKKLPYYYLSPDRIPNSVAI
Excerpt: 5. In Vitro Determination of Cyclooxygenase Inhibition And 5-lipoxygenase Inhibition.
After a cell is activated, arachidonic acid contained in cell membranes is metabolized in two ways. Leucotrienes, inter alia leucotriene C4, are formed due to the action of the enzyme 5-lipoxygenase (=5-LO), and prostanoids are formed due to the action of the enzyme cyclooxygenase (=CO). In in vitro systems these metabolites are secreted from the cell.
To evaluate the cyclooxygenase-inhibiting and 5-lipoxygenase-inhibiting properties of the test substances, their inhibitory activity on the biosynthesis of the arachidonic acid derivatives leucotriene C4 (=LTC4) and 6-keto-prostaglandin F1α (=6-keto-PGF1α) was determined in vitro on mouse peritoneal macrophage cells. For this purpose the LTC4 and 6-keto-PGF1α contents of a mouse peritoneal macrophage cell culture medium were determined by zymosan stimulation as described by Scott et al. (J. Exp. Med. 152 (1980), 324-335) and by Fradin et al., (Prostaglandins, 33 (1987), 579-589).
A cell suspension containing peritoneal cells from male mice 8-10 weeks old was obtained in a known manner. A solution marketed under the designation RPMI 1640 (Manufactured by Gibco) was used as the cell culture medium, to which heparin (10 international units/ml) and antibiotics were added according to the procedure of Bonney et al. (Biochem. J. 176 (1978) 422-433). The cell suspension was adjusted to a cell concentration of 10^6 cells per ml and distributed uniformly on titer dishes containing 24 1-ml titer cells (wells). These were kept for two hours in a humidified incubator filled with air enriched with 7% CO2. Cells not adhering to the titer well walls were then removed by washing. The remaining macrophage cells adhering to the walls were incubated for about 12 hours in a suspension medium to which 0.1% of bovine serum albumin (BSA=Bovine Serum Albumin) was added. The suspension medium was then replaced by a Hanks salt solution (=Hanks Balanced Salt Solution=HBSS) with 10 mmoles of HEPES (=hydroxyethylpiperazinoethanesulfonic acid) to which a 0.1% strength solution of the test substances in aqueous, 1% strength dimethylformamide or only the solvent had been added. After 15 minutes the arachidonic acid metabolism was stimulated by adding […] of zymosan (=glycoprotein mixture isolated from cell walls of beer yeast, Saccharomyces cerevisiae, Manufactured by Sigma Chemical Co., Munich) per titre cell. After 2 hours samples of the respective supernatant liquid in each cell were examined for their 6-keto-PGF1α and LTC4 contents by an enzyme immunoassay (=EIA). This EIA is carried out following the method of Pradelles et al. (Analytical Chem. 57 (1985), 1170-1173). The determination of LTC4 and the determination of 6-keto-PGF1α were each carried out on suitable dilutions of the samples (1:50 to 1:250 for the LTC4 determination and 1:250 to 1:1,250 for the 6-keto-PGF1α determination) in comparison with a comparative scale. To determine the inhibiting effect of a 10^-5 molar concentration of the compounds, the amounts of reference eicosanoid were determined, and the inhibiting effect was calculated therefrom in % inhibition compared to the measurements of the zymosan controls.

Row | Compound | Minimum toxic dose [1] [mg/kg] | % inhibition upon release of LTC4 [2] [%]
1 | Cc1ccnc(N2CCN(CCCC3Sc4ccccc4NC3=S)CC2)c1 (stereo not drawn) [Example 11] | > 300 | 42
2 | Cc1ccnc(N2CCN(CCCC3Oc4ccccc4NC3=O)CC2)c1 (stereo not drawn) [Example 9] | 300 | 65
3 | Cc1ccnc(N2CCN(CCCCC3Oc4ccccc4NC3=O)CC2)c1 (stereo not drawn) [Example 7] | – | 46
4 | O=C1Nc2ccccc2SC1CCCN1CCN(c2ccc(Cl)cn2)CC1 (stereo not drawn) [Example 15] | – | 9
5 | Cc1ccnc(N2CCN(CCCC3Sc4ccccc4NC3=O)CC2)c1 (stereo not drawn) [Example 8] | 100 | –
6 | Cc1ccnc(N2CCN(CCCCC3Sc4ccccc4NC3=O)CC2)c1 (stereo not drawn) [Example 1, 2-{4-[4-(4-methylpyridin-2-yl)-piperazin-1-yl]butyl}-2H-1,4-benzothiazine-3(4H)-one] | 300 | 48
